Data: PubChem BioAssay (NCI)
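Following 48 hours of exposure in 96-well plates, responses at five concentrations were used to interpolate endpoints linearly. At the GI50, growth is halved. TGI: concentration producing complete growth inhibition.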

How the values were obtained:
Test in all cases: NCI tumour cell line growth inhibition, 48 h; in the data active = GI50 below about 0.43 µM; inactive = the rest
786-0 renal = tested on: 786-0 renal
A498 renal = tested on: A498 renal
A549 NSCLC = tested on: A549 NSCLC
ACHN renal = tested on: ACHN renal
BT-549 breast = tested on: BT-549 breast
CAKI-1 renal = tested on: CAKI-1 renal
CCRF-CEM leukemia = tested on: CCRF-CEM leukemia
COLO 205 colon = tested on: COLO 205 colon
DU-145 prostate = tested on: DU-145 prostate
EKVX NSCLC = tested on: EKVX NSCLC
HCC-2998 colon = tested on: HCC-2998 colon
HCT-116 colon = tested on: HCT-116 colon
HCT-15 colon = tested on: HCT-15 colon
HL-60(TB) leukemia = tested on: HL-60(TB) leukemia
HOP-62 NSCLC = tested on: HOP-62 NSCLC
HOP-92 NSCLC = tested on: HOP-92 NSCLC
HS 578T breast = tested on: HS 578T breast
HT29 colon = tested on: HT29 colon
IGROV1 ovarian = tested on: IGROV1 ovarian
KM12 colon = tested on: KM12 colon
LOX IMVI melanoma = tested on: LOX IMVI melanoma
M14 melanoma = tested on: M14 melanoma
MALME-3M melanoma = tested on: MALME-3M melanoma
MCF7 breast = tested on: MCF7 breast
MDA-MB-231 breast = tested on: MDA-MB-231 breast
MDA-MB-435 = tested on: MDA-MB-435
MOLT-4 leukemia = tested on: MOLT-4 leukemia
NCI-H226 lung = tested on: NCI-H226 lung
NCI-H23 lung = tested on: NCI-H23 lung
NCI-H460 lung = tested on: NCI-H460 lung
NCI-H522 lung = tested on: NCI-H522 lung
NCI/ADR-RES ovarian = tested on: NCI/ADR-RES ovarian
OVCAR-3 ovarian = tested on: OVCAR-3 ovarian
OVCAR-4 ovarian = tested on: OVCAR-4 ovarian
OVCAR-5 ovarian = tested on: OVCAR-5 ovarian
OVCAR-8 ovarian = tested on: OVCAR-8 ovarian
PC-3 prostate = tested on: PC-3 prostate
RPMI-8226 leukemia = tested on: RPMI-8226 leukemia
RXF 393 renal = tested on: RXF 393 renal
SF-268 CNS = tested on: SF-268 CNS
SF-295 CNS = tested on: SF-295 CNS
SF-539 CNS = tested on: SF-539 CNS
SK-MEL-2 melanoma = tested on: SK-MEL-2 melanoma
SK-MEL-28 melanoma = tested on: SK-MEL-28 melanoma
SK-MEL-5 melanoma = tested on: SK-MEL-5 melanoma
SK-OV-3 ovarian = tested on: SK-OV-3 ovarian
SN12C renal = tested on: SN12C renal
SNB-19 CNS = tested on: SNB-19 CNS
SNB-75 CNS = tested on: SNB-75 CNS
SR leukemia = tested on: SR leukemia
SW-620 colon = tested on: SW-620 colon
T-47D breast = tested on: T-47D breast
TK-10 renal = tested on: TK-10 renal
U251 CNS = tested on: U251 CNS
UACC-257 melanoma = tested on: UACC-257 melanoma
UACC-62 melanoma = tested on: UACC-62 melanoma
UO-31 renal = tested on: UO-31 renal

[N-]=[N+]=NCCCn1c2c(c3ccccc3c1=O)C(=O)c1cc(Br)ccc1-2
92.4 µM: TGI (HOP-92 NSCLC)
51.7 µM: TGI (SR leukemia)
> 100 µM: TGI (786-0 renal) | TGI (A498 renal) | TGI (A549 NSCLC) | TGI (ACHN renal) | TGI (BT-549 breast) | TGI (CAKI-1 renal) | TGI (CCRF-CEM leukemia) | TGI (COLO 205 colon) | TGI (DU-145 prostate) | TGI (EKVX NSCLC) | TGI (HCC-2998 colon) | TGI (HCT-116 colon) | TGI (HCT-15 colon) | TGI (HL-60(TB) leukemia) | TGI (HOP-62 NSCLC) | TGI (HS 578T breast) | TGI (HT29 colon) | TGI (IGROV1 ovarian) | TGI (KM12 colon) | TGI (LOX IMVI melanoma) | TGI (M14 melanoma) | TGI (MALME-3M melanoma) | TGI (MCF7 breast) | TGI (MDA-MB-231 breast) | TGI (MDA-MB-435) | TGI (MOLT-4 leukemia) | TGI (NCI-H226 lung) | TGI (NCI-H23 lung) | TGI (NCI-H460 lung) | TGI (NCI-H522 lung) | TGI (NCI/ADR-RES ovarian) | TGI (OVCAR-3 ovarian) | TGI (OVCAR-4 ovarian) | TGI (OVCAR-5 ovarian) | TGI (OVCAR-8 ovarian) | TGI (PC-3 prostate) | TGI (RPMI-8226 leukemia) | TGI (RXF 393 renal) | TGI (SF-268 CNS) | TGI (SF-295 CNS) | TGI (SF-539 CNS) | TGI (SK-MEL-2 melanoma) | TGI (SK-MEL-28 melanoma) | TGI (SK-MEL-5 melanoma) | TGI (SK-OV-3 ovarian) | TGI (SN12C renal) | TGI (SNB-19 CNS) | TGI (SNB-75 CNS) | TGI (SW-620 colon) | TGI (T-47D breast) | TGI (TK-10 renal) | TGI (U251 CNS) | TGI (UACC-257 melanoma) | TGI (UACC-62 melanoma) | TGI (UO-31 renal)
inactive: GI50 (786-0 renal) > 100 µM | GI50 (A498 renal) > 100 µM | GI50 (A549 NSCLC) > 100 µM | GI50 (ACHN renal) > 100 µM | GI50 (BT-549 breast) > 100 µM | GI50 (CAKI-1 renal) > 100 µM | GI50 (CCRF-CEM leukemia) 50.8 µM | GI50 (COLO 205 colon) > 100 µM | GI50 (DU-145 prostate) > 100 µM | GI50 (EKVX NSCLC) > 100 µM | GI50 (HCC-2998 colon) > 100 µM | GI50 (HCT-116 colon) > 100 µM | GI50 (HCT-15 colon) > 100 µM | GI50 (HL-60(TB) leukemia) > 100 µM | GI50 (HOP-62 NSCLC) > 100 µM | GI50 (HOP-92 NSCLC) 9.42 µM | GI50 (HS 578T breast) > 100 µM | GI50 (HT29 colon) > 100 µM | GI50 (IGROV1 ovarian) > 100 µM | GI50 (KM12 colon) > 100 µM | GI50 (LOX IMVI melanoma) > 100 µM | GI50 (M14 melanoma) > 100 µM | GI50 (MALME-3M melanoma) > 100 µM | GI50 (MCF7 breast) 39.8 µM | GI50 (MDA-MB-231 breast) > 100 µM | GI50 (MDA-MB-435) > 100 µM | GI50 (MOLT-4 leukemia) 28.9 µM | GI50 (NCI-H226 lung) > 100 µM | GI50 (NCI-H23 lung) > 100 µM | GI50 (NCI-H460 lung) 46.8 µM | GI50 (NCI-H522 lung) > 100 µM | GI50 (NCI/ADR-RES ovarian) > 100 µM | GI50 (OVCAR-3 ovarian) > 100 µM | GI50 (OVCAR-4 ovarian) > 100 µM | GI50 (OVCAR-5 ovarian) > 100 µM | GI50 (OVCAR-8 ovarian) > 100 µM | GI50 (PC-3 prostate) > 100 µM | GI50 (RPMI-8226 leukemia) > 100 µM | GI50 (RXF 393 renal) > 100 µM | GI50 (SF-268 CNS) > 100 µM | GI50 (SF-295 CNS) > 100 µM | GI50 (SF-539 CNS) > 100 µM | GI50 (SK-MEL-2 melanoma) > 100 µM | GI50 (SK-MEL-28 melanoma) > 100 µM | GI50 (SK-MEL-5 melanoma) > 100 µM | GI50 (SK-OV-3 ovarian) > 100 µM | GI50 (SN12C renal) > 100 µM | GI50 (SNB-19 CNS) > 100 µM | GI50 (SNB-75 CNS) 45.1 µM | GI50 (SR leukemia) 9.82 µM | GI50 (SW-620 colon) > 100 µM | GI50 (T-47D breast) > 100 µM | GI50 (TK-10 renal) > 100 µM | GI50 (U251 CNS) > 100 µM | GI50 (UACC-257 melanoma) > 100 µM | GI50 (UACC-62 melanoma) > 100 µM | GI50 (UO-31 renal) > 100 µM
